Assay results from patent US8614327B2 (Vertex Pharmaceuticals Incorporated, priority 2004, dated 2013).

Molecular target: T1, ΔF508-CFTR (Homo sapiens, UniProt P13569, DEL508-508)
T1 construct: expressed in transfected cells
Assay: Membrane potential optical (FRET/VIPR) assay, identification of potentiator compounds
Assay type: cell-based
Details: Table 3, assay not given; for % Activity: relative efficacy
In short: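 NIH3T3 mouse fibroblasts stably expressing ΔF508-CFTR, temperature-corrected 24 h at 27° C., read on VIPR by FRET between CC2-DMPE and DiSBAC2(3). Potentiators identified in a double-addition format, first adding chloride-free (gluconate) medium with or without compound.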

T1 sequence (P13569 with tags, fused parts or gaps DEL508-508): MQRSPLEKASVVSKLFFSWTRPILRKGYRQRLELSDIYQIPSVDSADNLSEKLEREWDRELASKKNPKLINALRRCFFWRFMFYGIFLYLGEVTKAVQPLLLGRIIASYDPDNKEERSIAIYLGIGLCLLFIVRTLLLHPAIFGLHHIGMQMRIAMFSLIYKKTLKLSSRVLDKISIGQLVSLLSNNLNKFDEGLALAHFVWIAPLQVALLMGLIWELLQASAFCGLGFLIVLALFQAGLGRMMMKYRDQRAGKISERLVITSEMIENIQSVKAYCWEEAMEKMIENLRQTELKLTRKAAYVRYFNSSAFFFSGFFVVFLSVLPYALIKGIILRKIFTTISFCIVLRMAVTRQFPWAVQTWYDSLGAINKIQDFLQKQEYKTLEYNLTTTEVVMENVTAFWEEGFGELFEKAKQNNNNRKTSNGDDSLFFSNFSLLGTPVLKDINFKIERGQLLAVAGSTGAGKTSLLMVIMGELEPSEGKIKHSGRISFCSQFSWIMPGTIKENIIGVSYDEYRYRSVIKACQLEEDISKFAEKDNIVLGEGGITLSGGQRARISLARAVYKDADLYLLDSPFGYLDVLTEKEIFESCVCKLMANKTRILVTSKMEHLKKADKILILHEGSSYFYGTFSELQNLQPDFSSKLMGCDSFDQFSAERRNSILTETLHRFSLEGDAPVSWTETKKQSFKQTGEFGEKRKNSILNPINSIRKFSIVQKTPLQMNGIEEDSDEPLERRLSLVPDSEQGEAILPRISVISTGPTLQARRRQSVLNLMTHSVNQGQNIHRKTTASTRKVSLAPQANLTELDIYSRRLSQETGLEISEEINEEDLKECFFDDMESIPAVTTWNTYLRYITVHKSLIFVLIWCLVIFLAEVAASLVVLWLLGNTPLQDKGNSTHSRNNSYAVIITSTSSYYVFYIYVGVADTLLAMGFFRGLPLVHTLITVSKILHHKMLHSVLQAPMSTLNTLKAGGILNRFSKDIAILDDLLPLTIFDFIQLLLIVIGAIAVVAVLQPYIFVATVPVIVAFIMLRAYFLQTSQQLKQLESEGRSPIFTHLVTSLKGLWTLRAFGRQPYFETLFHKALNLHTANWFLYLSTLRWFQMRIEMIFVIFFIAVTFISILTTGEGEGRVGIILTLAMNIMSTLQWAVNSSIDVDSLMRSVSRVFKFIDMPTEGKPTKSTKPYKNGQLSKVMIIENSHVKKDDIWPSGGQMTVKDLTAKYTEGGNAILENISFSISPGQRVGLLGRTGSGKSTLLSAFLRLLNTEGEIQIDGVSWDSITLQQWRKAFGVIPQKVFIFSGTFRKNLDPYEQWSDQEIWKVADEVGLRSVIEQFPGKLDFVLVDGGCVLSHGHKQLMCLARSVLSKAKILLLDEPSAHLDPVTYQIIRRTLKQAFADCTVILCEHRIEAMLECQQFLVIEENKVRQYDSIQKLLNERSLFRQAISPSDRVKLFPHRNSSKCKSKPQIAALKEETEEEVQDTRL

SMILES | EC50 | % Activity
O=C(Nc1ccc2cc[nH]c2c1)c1cnc2ccc(Cl)cc2c1O [Compound 358, 6-chloro-4-hydroxy-N-(1H-indol-6-yl)quinoline-3-carboxamide] | < 10 µM | ++ (between 25% to 100%)
O=C(Nc1ccc2c(c1)NCCCC2)c1c[nH]c2ccccc2c1=O [Compound 10, 1,4-dihydro-N-(2,3,4,5-tetrahydro-1H-benzo[b]azepin-8-yl)-4-oxoquinoline-3-carboxamide] | < 10 µM | ++ (between 25% to 100%)
Cc1ccc2[nH]cc(C(=O)Nc3ccc(N4CCC(C)(C)C4)cc3C(F)(F)F)c(=O)c2c1 [Compound 489, N-[4-(3,3-dimethylpyrrolidin-1-yl)-2-(trifluoromethyl)phenyl]-6-methyl-4-oxo-1H-quinoline-3-carboxamide] | < 10 µM | ++ (between 25% to 100%)
O=C(Nc1cccnc1Oc1ccc(F)cc1)c1c[nH]c2ccccc2c1=O [Compound 147, N-[2-(4-fluorophenoxy)-3-pyridyl]-4-oxo-1H-quinoline-3-carboxamide] | < 10 µM | ++ (between 25% to 100%)
CCC1(c2ccc(NC(=O)c3c[nH]c4ccccc4c3=O)cc2)CCC(=O)NC1=O (centres unmarked) [Compound 57, N-[4-(3-ethyl-2,6-dioxo-3-piperidyl)phenyl]-4-oxo-1H-quinoline-3-carboxamide] | 10 to 25 µM | +++ (>100%)
C[C@@H]1CCCN1c1ccc(NC(=O)c2c[nH]c3ccccc3c2=O)c(C(F)(F)F)c1 [Compound 572, (R)-N-(4-(2-methylpyrrolidin-1-yl)-2-(trifluoromethyl)phenyl)-4-oxo-1,4-dihydroquinoline-3-carboxamide] | – | ++ (between 25% to 100%)
O=C(Nc1ccc2c(c1)S(=O)(=O)C=C2)c1c[nH]c2ccccc2c1=O [Compound 446, N-(1,1-dioxobenzothiophen-6-yl)-4-oxo-1H-quinoline-3-carboxamide] | 25 to 60 µM | + (<25%)
O=C(Nc1ccc(F)cc1)c1c[nH]c2ccccc2c1=O [Compound 198, N-(4-fluorophenyl)-4-oxo-1H-quinoline-3-carboxamide] | < 10 µM | ++ (between 25% to 100%)
CC(C)(C)c1ccc(NC(=O)c2c[nH]c3ccccc3c2=O)cc1OCCO [Compound 458, N-[3-(2-hydroxyethoxy)-4-tert-butyl-phenyl]-4-oxo-1H-quinoline-3-carboxamide] | < 10 µM | ++ (between 25% to 100%)
CCCc1ccc(NC(=O)c2c[nH]c3ccccc3c2=O)cc1NS(C)(=O)=O [Compound 340, N-(3-methylsulfonylamino-4-propyl-phenyl)-4-oxo-1H-quinoline-3-carboxamide] | < 10 µM | ++ (between 25% to 100%)
CCOC(=O)C(C)(C)c1ccc(NC(=O)c2c[nH]c3ccccc3c2=O)cc1 [Compound 420, 2-methyl-2-[4-[(4-oxo-1H-quinolin-3-yl)carbonylamino]phenyl]-propanoic acid ethyl ester] | < 10 µM | ++ (between 25% to 100%)
COCCOCC(C)(C)c1ccc(NC(=O)c2c[nH]c3ccccc3c2=O)cc1O [Compound 126, N-[3-hydroxy-4-[2-(2-methoxyethoxy)-1,1-dimethyl-ethyl]-phenyl]-4-oxo-1H-quinoline-3-carboxamide] | < 10 µM | ++ (between 25% to 100%)
O=C(Nc1ccc2c(c1)NCC21CC1)c1c[nH]c2ccccc2c1=O [Compound 22, 4-Oxo-1,4-dihydro-quinoline-3-carboxylic acid N-(1′,2′-dihydrospiro[cyclopropane-1,3′-[3H]indol]-6′-yl)-amide] | 10 to 25 µM | ++ (between 25% to 100%)
O=C(Nc1cccc(OC(F)(F)F)c1)c1c[nH]c2ccccc2c1=O [Compound 62, 4-oxo-N-[3-(trifluoromethoxy)phenyl]-1H-quinoline-3-carboxamide] | < 10 µM | ++ (between 25% to 100%)
CC(C)(C)C(=O)Nc1ccc(NC(=O)c2c[nH]c3ccccc3c2=O)c(C(F)(F)F)c1 [Compound 556, N-[4-(2,2-dimethylpropanoylamino)-2-(trifluoromethyl)phenyl]-4-oxo-1H-quinoline-3-carboxamide] | < 10 µM | ++ (between 25% to 100%)
CC(C)(C)c1cc(C(C)(C)C)c(NC(=O)c2c[nH]c3ccc(C#N)cc3c2=O)cc1O [Compound 525, 6-cyano-N-(5-hydroxy-2,4-ditert-butyl-phenyl)-4-oxo-1H-quinoline-3-carboxamide] | < 10 µM | + (<25%)

Other lines, results leading:

EC50 | % Activity | SMILES
– | ++ (between 25% to 100%) | COC(=O)c1cccc(-c2ccccc2NC(=O)c2c[nH]c3ccccc3c2=O)c1 [Compound 68, 3-[2-[(4-oxo-1H-quinolin-3-yl)carbonylamino]phenyl]benzoic acid methyl ester]
< 10 µM | ++ (between 25% to 100%) | Cc1cccc(-c2ccccc2NC(=O)c2c[nH]c3ccccc3c2=O)c1 [Compound 52, N-[2-(m-tolyl)phenyl]-4-oxo-1H-quinoline-3-carboxamide]
< 10 µM | + (<25%) | O=C(Nc1ccc(C(F)(F)F)cc1Cl)c1c[nH]c2ccc(F)cc2c1=O [Compound 636, N-[2-chloro-4-(trifluoromethyl)phenyl]-6-fluoro-4-oxo-1H-quinoline-3-carboxamide]
< 10 µM | ++ (between 25% to 100%) | CC(C)(C)OC(=O)N1CCC(C)(C)c2ccc(NC(=O)c3c[nH]c4ccccc4c3=O)cc21 [Compound 108, 4,4-dimethyl-7-[(4-oxo-1H-quinolin-3-yl)carbonylamino]-1,2,3,4-tetrahydroquinoline-1-carboxylic acid tert-butyl ester]
< 10 µM | ++ (between 25% to 100%) | Cc1cccc2[nH]cc(C(=O)Nc3cc4[nH]ccc4cc3C(F)(F)F)c(=O)c12 [Compound 661, 5-methyl-4-oxo-N-[5-(trifluoromethyl)-1H-indol-6-yl]-1H-quinoline-3-carboxamide]
10 to 25 µM | ++ (between 25% to 100%) | O=C(Nc1ccc(S(=O)(=O)N2CCOCC2)cc1)c1c[nH]c2ccccc2c1=O [Compound 276, N-(4-morpholinosulfonylphenyl)-4-oxo-1H-quinoline-3-carboxamide]
< 10 µM | ++ (between 25% to 100%) | CC(C)(C)c1ccc(NC(=O)c2c[nH]c3cccc(O)c3c2=O)cc1F [Compound 491, N-(3-fluoro-4-tert-butyl-phenyl)-5-hydroxy-4-oxo-1H-quinoline-3-carboxamide]
< 10 µM | ++ (between 25% to 100%) | O=C(Nc1ccccc1-c1ccc(Cl)c(Cl)c1)c1c[nH]c2ccccc2c1=O [Compound 85, N-[2-(3,4-dichlorophenyl)phenyl]-4-oxo-1H-quinoline-3-carboxamide]
10 to 25 µM | ++ (between 25% to 100%) | O=C(c1ccccc1)c1ccccc1NC(=O)c1c[nH]c2ccccc2c1=O [Compound 252, N-(2-benzoylphenyl)-4-oxo-1H-quinoline-3-carboxamide]
< 10 µM | ++ (between 25% to 100%) | CCCc1ccc(NC(=O)c2c[nH]c3ccccc3c2=O)cc1N [Compound 160, N-(3-amino-4-propyl-phenyl)-4-oxo-1H-quinoline-3-carboxamide]
